Test results as given in patent publication US5880119A, “Mercaptoacetylamino 1,3,4,5-tetrahydro-benzo(C)azepin-2-one disulfide derivatives useful as inhibitors of enkephalinase and ACE” (Merrell Pharmaceuticals Inc., priority 1997, dated 1999).

Target: T1, ACE (Angiotensin-Converting Enzyme) of rat kidney preparations (Rattus norvegicus, UniProt P47820)
T1 construct: compound- or vehicle-dosed rat kidney preparations; from tissue; host or cells: kidney of male Sprague-Dawley rats
T1 sequence (P47820 36-1313): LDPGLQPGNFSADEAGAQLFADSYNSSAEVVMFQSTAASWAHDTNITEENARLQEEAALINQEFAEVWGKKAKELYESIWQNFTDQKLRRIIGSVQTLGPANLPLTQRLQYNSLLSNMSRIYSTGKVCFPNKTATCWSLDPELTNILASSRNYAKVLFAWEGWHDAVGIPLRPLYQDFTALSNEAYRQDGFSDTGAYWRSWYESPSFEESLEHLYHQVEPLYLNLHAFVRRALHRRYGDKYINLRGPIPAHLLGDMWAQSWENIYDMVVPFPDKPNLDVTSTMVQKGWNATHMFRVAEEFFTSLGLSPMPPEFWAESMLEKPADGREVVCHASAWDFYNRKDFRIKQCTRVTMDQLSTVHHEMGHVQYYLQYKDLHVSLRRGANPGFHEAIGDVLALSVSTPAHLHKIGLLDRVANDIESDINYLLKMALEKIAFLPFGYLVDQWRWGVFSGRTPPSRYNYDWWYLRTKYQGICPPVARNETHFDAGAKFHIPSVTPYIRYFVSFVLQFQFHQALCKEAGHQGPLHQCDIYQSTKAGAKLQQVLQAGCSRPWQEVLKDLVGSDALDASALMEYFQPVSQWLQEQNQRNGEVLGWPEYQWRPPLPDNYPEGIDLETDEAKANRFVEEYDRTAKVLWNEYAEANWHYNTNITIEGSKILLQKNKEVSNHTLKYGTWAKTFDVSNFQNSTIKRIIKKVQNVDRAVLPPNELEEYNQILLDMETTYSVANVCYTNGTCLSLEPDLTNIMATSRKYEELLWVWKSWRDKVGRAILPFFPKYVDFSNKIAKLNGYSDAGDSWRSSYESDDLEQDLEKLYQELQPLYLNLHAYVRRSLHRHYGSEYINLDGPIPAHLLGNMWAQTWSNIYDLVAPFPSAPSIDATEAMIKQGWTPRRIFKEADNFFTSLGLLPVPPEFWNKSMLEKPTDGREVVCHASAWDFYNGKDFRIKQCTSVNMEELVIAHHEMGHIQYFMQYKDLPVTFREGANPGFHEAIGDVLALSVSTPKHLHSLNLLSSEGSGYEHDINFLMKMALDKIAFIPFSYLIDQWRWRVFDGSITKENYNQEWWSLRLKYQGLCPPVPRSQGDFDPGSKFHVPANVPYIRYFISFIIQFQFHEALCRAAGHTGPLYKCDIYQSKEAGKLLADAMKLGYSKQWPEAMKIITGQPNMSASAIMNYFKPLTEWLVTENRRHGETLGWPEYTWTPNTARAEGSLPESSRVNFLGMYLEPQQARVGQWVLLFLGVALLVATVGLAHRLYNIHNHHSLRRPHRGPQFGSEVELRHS
Assay: Radiometric ACE activity assay on rat kidney preparations
Type: biochemical, rat (Sprague-Dawley)
Conditions: 1 μM enalaprilat; substrate tritiated hippuryl-glycyl-glycine; compound- or vehicle-dosed rat kidney preparations

inhibition of radioactive product formation: Complete inhibition
SMILES: C[C@H](N[C@@H](CCc1ccccc1)C(=O)O)C(=O)N1CCC[C@H]1C(=O)O [enalaprilat]
